Measurements from patent US10526316B2, “Quinoxaline and pyridopyrazine derivatives as PI3Kβ inhibitors” (Janssen Pharmaceutica NV, priority 2015, dated 2020).
Where two headings read alike, the source gives them in different places.

Tests used:
[1] = target: T1, kinase enzymes (Homo sapiens, UniProt P42336); assay: Enzyme binding assay (KINOMEscan, DiscoveRx), further kinases of Table A; conditions: PIK3Cα_h
T1 construct: purchased DiscoveRx Corporation, San Diego (contract service, KINOMEscan)
How it was run: (§1)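 Binding affinities were measured on the KINOMEscan platform.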

[2] = target: T2, kinase enzymes (Homo sapiens, UniProt P48736); assay: as above; conditions: PIK3Cγ_h
T2 construct: purchased DiscoveRx Corporation, San Diego (contract service, KINOMEscan)
How it was run: as §1

[3] = target: T3, kinase enzymes (Homo sapiens, UniProt P42345); assay: as above; conditions: MTOR_h
T3 construct: purchased DiscoveRx Corporation, San Diego (contract service, KINOMEscan)
How it was run: as §1

[4] = tested on: Akt phosphorylated at Ser473 in PC-3 cells; assay: Cellular assay: phosphorylation of Akt at Ser473 in PC-3 cells (MSD ELISA); assay type: cell-based; conditions: PC-3 cells, 60 min compound incubation, MSD ELISA, read-out: IC50 pAkt_S473
How it was run: (§2)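 After lysis of treated cells (60 min, 37° C, 0.3% DMSO), phospho-Akt levels were measured by MSD electrochemiluminescence ELISA. Potency was derived from concentration-response curves fitted over five concentrations.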

[5] = target: T4, PI3Kβ (Homo sapiens, UniProt P42338); assay: Enzyme binding assay (KINOMEscan, DiscoveRx); conditions: PIK3Cβ_h, read-out: Kd PIK3Cβ_h
T4 construct: purchased DiscoveRx Corporation, San Diego (contract service, KINOMEscan)
How it was run: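 Kinase binding affinities were measured with KINOMEscan technology. Results are given as Kd, the inhibitor binding constant, in nM.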

[6] = target: T5, PI3Kδ (Homo sapiens, UniProt O00329); assay: Enzyme binding assay (KINOMEscan, DiscoveRx); conditions: PIK3Cδ_h
T5 construct: purchased DiscoveRx Corporation, San Diego (contract service, KINOMEscan)
T5 sequence (O00329 1-1044): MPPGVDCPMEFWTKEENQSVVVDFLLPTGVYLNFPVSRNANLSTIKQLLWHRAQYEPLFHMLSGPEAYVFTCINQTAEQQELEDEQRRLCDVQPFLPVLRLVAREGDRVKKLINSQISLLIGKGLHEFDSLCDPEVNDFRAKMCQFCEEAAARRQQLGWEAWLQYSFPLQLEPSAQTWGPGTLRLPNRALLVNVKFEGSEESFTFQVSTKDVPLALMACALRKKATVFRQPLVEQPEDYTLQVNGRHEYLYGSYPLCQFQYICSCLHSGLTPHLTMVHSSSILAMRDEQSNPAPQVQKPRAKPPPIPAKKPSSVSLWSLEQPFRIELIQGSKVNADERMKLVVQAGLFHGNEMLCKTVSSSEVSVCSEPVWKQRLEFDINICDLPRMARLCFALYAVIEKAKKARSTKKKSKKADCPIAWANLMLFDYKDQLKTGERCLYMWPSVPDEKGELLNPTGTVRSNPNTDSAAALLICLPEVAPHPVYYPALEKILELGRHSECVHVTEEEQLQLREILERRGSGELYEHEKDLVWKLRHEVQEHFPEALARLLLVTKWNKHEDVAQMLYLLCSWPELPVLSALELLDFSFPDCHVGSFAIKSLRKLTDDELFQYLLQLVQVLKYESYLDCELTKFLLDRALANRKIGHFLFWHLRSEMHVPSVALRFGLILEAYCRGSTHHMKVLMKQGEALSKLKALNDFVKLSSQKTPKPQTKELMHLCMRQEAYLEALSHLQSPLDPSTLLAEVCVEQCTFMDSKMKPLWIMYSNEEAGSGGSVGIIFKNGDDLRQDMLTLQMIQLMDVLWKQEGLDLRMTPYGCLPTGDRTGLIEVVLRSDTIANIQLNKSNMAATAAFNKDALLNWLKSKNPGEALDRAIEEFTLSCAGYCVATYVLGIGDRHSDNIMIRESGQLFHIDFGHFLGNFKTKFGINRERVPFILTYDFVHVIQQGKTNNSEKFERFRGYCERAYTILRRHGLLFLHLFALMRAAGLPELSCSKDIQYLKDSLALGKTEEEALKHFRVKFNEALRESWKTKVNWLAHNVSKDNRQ
How it was run: as §1

[7] = tested on: Akt phosphorylated at Thr308 in PC-3 cells; assay: Cellular assay: phosphorylation of Akt at Thr308 in PC-3 cells (MSD ELISA); assay type: cell-based; conditions: PC-3 cells, 60 min compound incubation, MSD ELISA, read-out: IC50 pAkt_Thr308
How it was run: as §2

T1 sequence (P42336 whole entry): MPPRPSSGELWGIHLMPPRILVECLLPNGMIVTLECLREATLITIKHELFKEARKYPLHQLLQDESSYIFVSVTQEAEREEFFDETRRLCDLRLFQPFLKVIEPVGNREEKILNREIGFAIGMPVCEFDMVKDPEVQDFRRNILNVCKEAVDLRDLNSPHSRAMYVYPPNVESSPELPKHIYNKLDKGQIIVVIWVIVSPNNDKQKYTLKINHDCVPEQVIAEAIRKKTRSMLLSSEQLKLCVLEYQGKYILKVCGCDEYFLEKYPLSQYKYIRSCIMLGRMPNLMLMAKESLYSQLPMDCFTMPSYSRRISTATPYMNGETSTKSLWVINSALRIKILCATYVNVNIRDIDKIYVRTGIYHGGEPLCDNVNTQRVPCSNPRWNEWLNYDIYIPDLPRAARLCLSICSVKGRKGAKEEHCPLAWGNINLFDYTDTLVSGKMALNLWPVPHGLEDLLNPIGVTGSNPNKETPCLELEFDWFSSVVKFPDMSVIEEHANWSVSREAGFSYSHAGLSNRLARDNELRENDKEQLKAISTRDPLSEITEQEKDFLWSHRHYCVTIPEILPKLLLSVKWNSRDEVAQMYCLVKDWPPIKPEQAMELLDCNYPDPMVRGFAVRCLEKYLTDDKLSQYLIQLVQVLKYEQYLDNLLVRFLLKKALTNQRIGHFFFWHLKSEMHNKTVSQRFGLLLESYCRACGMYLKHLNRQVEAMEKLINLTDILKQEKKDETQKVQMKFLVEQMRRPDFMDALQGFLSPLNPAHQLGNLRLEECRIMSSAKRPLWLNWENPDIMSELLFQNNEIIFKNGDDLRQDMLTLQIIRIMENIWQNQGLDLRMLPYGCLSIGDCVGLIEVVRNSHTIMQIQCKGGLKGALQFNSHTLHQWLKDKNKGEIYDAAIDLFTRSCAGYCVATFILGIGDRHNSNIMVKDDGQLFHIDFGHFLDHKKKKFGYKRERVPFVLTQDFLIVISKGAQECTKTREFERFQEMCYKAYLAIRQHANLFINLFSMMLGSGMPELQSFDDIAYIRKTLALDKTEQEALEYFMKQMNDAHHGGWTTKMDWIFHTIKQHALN
T2 sequence (P48736 whole entry): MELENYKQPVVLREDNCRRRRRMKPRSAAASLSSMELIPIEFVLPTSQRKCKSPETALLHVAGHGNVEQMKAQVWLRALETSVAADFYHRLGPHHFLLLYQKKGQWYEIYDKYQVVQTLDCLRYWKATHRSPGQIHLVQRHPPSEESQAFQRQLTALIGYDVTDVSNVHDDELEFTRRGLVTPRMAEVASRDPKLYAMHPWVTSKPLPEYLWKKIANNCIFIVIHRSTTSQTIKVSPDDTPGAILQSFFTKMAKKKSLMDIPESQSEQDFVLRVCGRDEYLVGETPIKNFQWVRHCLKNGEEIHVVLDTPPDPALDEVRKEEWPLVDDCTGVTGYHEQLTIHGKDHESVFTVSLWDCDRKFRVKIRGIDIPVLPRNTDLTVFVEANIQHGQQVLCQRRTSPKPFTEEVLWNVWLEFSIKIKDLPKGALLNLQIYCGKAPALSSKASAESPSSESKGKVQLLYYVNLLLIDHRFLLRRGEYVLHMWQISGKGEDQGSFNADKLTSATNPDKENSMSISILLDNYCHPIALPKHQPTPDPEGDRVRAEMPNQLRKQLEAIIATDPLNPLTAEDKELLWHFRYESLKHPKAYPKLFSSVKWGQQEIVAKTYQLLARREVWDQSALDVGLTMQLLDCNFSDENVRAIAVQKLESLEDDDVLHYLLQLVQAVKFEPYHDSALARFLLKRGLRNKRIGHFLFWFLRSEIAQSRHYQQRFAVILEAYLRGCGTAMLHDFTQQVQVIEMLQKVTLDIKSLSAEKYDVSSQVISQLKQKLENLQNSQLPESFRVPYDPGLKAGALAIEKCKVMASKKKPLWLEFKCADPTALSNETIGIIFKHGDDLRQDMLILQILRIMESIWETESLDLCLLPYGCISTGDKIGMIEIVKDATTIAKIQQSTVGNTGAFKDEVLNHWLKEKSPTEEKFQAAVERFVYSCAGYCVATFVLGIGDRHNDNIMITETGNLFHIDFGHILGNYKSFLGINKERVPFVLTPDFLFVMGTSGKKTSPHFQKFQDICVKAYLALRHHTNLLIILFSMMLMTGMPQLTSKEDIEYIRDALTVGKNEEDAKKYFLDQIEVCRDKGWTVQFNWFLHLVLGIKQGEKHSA
T4 sequence (P42338 whole entry): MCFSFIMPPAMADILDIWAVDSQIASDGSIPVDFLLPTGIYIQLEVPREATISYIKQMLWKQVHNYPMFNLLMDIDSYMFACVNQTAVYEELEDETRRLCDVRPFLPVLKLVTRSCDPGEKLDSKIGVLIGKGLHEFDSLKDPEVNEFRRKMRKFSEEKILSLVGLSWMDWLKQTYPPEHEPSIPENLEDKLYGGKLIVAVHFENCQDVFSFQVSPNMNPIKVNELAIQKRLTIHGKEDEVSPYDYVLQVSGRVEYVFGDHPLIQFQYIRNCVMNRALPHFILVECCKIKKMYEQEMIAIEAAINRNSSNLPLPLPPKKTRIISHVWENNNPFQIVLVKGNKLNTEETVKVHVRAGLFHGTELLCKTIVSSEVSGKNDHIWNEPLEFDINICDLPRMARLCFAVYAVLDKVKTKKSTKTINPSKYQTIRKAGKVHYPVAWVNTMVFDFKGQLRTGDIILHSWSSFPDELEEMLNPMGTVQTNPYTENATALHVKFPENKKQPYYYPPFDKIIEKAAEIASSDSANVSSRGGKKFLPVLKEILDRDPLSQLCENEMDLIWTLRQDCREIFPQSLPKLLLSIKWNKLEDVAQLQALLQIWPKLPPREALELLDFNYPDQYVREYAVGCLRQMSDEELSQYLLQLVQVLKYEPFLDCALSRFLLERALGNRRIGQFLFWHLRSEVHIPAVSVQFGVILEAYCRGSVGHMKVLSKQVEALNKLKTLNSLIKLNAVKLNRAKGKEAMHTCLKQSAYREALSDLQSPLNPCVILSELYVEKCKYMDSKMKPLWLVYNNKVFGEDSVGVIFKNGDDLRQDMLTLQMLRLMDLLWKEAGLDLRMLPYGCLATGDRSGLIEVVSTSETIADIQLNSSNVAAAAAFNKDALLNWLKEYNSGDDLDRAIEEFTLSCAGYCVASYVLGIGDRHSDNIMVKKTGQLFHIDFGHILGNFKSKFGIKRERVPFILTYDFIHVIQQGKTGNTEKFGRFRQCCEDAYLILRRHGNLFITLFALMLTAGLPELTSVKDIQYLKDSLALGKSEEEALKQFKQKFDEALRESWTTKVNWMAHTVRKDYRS

Compound | Kd [1] [nM] | Kd [2] [nM] | Kd [3] [nM] | IC50 [4] [nM] | Kd [5] [nM] | Kd [6] [nM] | IC50 ([7]; Homo sapiens, PC-3, 1 h) [nM] | melting point [°C] | IC50 ([4]; Homo sapiens, PC-3, 1 h) [nM] | IC50 [7] [nM]
OC(CN1CCC1)c1cc(C2CCCN2c2cc(F)cc(F)c2)c2nc(N3CCOCC3)cnc2c1 (single isomer, unassigned) [Compound 94] | 79 | 178 | 21400 | 8 | 0.1 | 29 | 12 | 80 |  | 
OCCCNCc1cc(C2CCCN2c2cc(F)cc(F)c2)c2nc(N3CCOCC3)cnc2c1 (single isomer, unassigned) [Compound 102] | 245 | 398 | > 30200 |  | 0.2 | 31 | 23 | 80 | 22 | 
Cc1cc(C2CCCN2c2cc(F)cc(F)c2)c2nc(N3CCOCC3)cnc2c1 (single isomer, unassigned) [Compound 106] | 3160 | 3310 | > 30200 | 105 | 6 | 1000 |  | 80 |  | 62
Cc1cc(C2CCCN2c2cc(F)cc(F)c2)c2nc(N3CCOCC3)cnc2c1 (single isomer, unassigned) [Compound 107] | > 30200 | > 30200 | > 30200 | > 513 | 363 | 23400 |  | 80 to 90 |  | > 513
CCN1CCN(C(=O)c2cc(C(C)Nc3cccc(F)c3)c3nc(N4CCOCC4)cnc3c2)CC1 (single isomer, unassigned) [Compound 113] | > 30200 | > 10000 | > 30200 | > 513 | 1020 | > 30200 |  | 307 |  | > 513
CCN1CCN(C(=O)c2cc(C(C)Nc3cccc(F)c3)c3nc(N4CCOCC4)cnc3c2)CC1 (single isomer, unassigned) [Compound 114] | 1620 | 6920 | > 30200 | 50 | 1 | 186 |  | 303 |  | 18
CC(Nc1cccc(F)c1)c1cc(C(=O)N2CCC[C@H]2CO)cc2ncc(N3CCOCC3)nc12 (single isomer, unassigned) [Compound 116] | > 30200 | > 30200 | > 30200 | > 513 | 2880 | ≥ 30200 |  | 332 |  | > 513
Cc1cccc(N(C)C(C)c2cc(C(=O)N(C)C)cc3ncc(N4CCOCC4)nc23)c1 (single isomer, unassigned) [Compound 127] | 6460 | 21900 | 25700 |  | 32 | 2290 | 331 | 80 | ~457 | 
CNCCN(C)C(=O)c1cc(C(C)Nc2cc(F)cc(F)c2)c2nc(N3CCOCC3)cnc2c1 (single isomer, unassigned) [Compound 137] | 138 | 501 | > 30200 | 1 | 0.1 | 9 |  | 80 |  | 1
CC(c1cc(C(=O)N(C)C)cc2ncc(N3CCOCC3)nc12)N(C)c1cccc(Cl)c1 (single isomer, unassigned) [Compound 140] | 14800 | 25100 | > 30200 |  | 5130 | 15800 | > 513 | 80 | 479 | 
CC(Nc1cc(F)cc(F)c1)c1cc(CO)cc2ncc(N3CCOCC3)nc12 (single isomer, unassigned) [Compound 154b] | 20900 | 7760 | 25100 | > 513 | 490 | 14800 |  | 90 |  | > 513
CC(Nc1cc(F)cc(F)c1)c1cc(CN2CC3(C2)CS(=O)(=O)C3)cc2ncc(N3CCOCC3)nc12 (single isomer, unassigned) [Compound 160] | 813 | 9770 | 19500 | 58 | 2 | 575 |  | 229 |  | 23
CC(Nc1cc(F)cc(F)c1)c1cc(CN2CC3(C2)CS(=O)(=O)C3)cc2ncc(N3CCOCC3)nc12 (single isomer, unassigned) [Compound 161] | > 30200 | > 30200 | > 30200 | > 513 | 776 | > 30200 |  | 228 |  | > 513
CC(Nc1cc(F)cc(F)c1)c1cc(CNCC(F)(F)F)cc2ncc(N3CCOCC3)nc12 (single isomer, unassigned) [Compound 162] | 3980 | 24500 | > 30200 | 209 | 9 | 1230 |  | 80 |  | 91
CNCCNC(=O)c1cc(C(C)Oc2cc(F)cc(F)c2)c2nc(N3CCOCC3)cnc2c1 (single isomer, unassigned) [Compound 165] | 1780 | 5490 | 14100 | 45 | 0.3 | 182 |  | 80 |  | 11
CC(Nc1cc(F)cc(F)c1)c1cc(C(=O)N2CCN(CC(F)(F)F)CC2)cc2ncc(N3CCOCC3)nc12 (single isomer, unassigned) [Compound 172] | > 30200 | > 30200 | > 30200 |  | 1260 | > 30200 | > 513 | 130 | > 513 | 
